Laboratory results as given in US8673910B2, “Proteasome inhibitors for selectively inducing apoptosis in cancer cells” (H. Lee Moffitt Cancer Center and Research Institute, priority 2008, dated 2014).
“And” between values parts separate entries of the source, which are not always exact repeats. Equal entries are not always repeated. Where two headings read alike, the source gives them in different places.

Columns and labels:
[1] = molecular target: T1, tumor CT-L activity (A549 tumors) (Homo sapiens, UniProt P20618+P28074); experiment: Proteasome activity in A549 tumor lysates after in vivo treatment; design: species or system nude mice; details: mouse, ip; A549 tumors extracted 2 hours after last i.p. injection (1 mpk), vs DMSO-treated controls
T1 construct: from tissue; host or cells: A549 human lung tumour xenografts grown in nude mice
Procedure: (§3) To determine proteasome activity in whole cell extracts from cultured cells (5 μg) or tumor and liver tissue extracts (30 μg) from nude mice, the same assay was used except that the buffer was changed to 20 mM HEPES, 0.5 mM EDTA, pH 8.0.
(§4) Whole cell extracts were prepared as follows: Cells were harvested, washed with PBS twice, and homogenized in a lysis buffer (50 mM Tris-HCl, pH 8.0, 5 mM EDTA, 150 mM NaCl, 0.5% NP-40) for 30 min at 4° C. Cell extracts from tumors and livers of nude mice were prepared in 50 mM HEPES, 0.5 mM EDTA, pH 8.0. Cell lysates were centrifuged at 12,000 g for 15 min, and the supernatants were collected as whole cell extracts.
(§5) Nude mice (Charles River Laboratories, Wilmington, Mass.) were maintained and treated in accordance with the Institutional Animal Care and Use Committee procedures and guidelines. […] Exponentially growing MCF-7 and A549 cells were harvested via trypsinization, pelleted at 300 g for 5 minutes, resuspended in sterile PBS (Invitrogen) at 10^7 cells per 100 μl, and injected into each flank of mice. The tumor xenografts were monitored with an electronic caliper every other day for 16 days. Tumor volume was calculated using the formula V=W^2L, where width is the largest diameter and length is the smallest diameter. When the tumors reached ˜200 mm^3, the animals were randomized and treatment schedules were implemented. […]

[2] = tested on: LNCaP prostate cancer cells; experiment: MTT metabolism assay; format: cell-based; details: Homo sapiens, mean ± SD of 3 to 5 experiments, read-out: IC50 for cell viability measured by MTT assay
Procedure: (§1) Cells were plated in 96-well plates in 100 μl medium and allowed to attach overnight. […] Media was aspirated after 24 or 72 hours and replaced with 100 μl complete media containing 1 mg/ml MTT and incubated for three hours at 37° C. in 5% CO2 humidified incubator. Media was then aspirated and DMSO was added. Cells were incubated for 10 min at room temperature while shaking, and the absorbance was determined at 540 nm using a μQuant spectrophotometric plate reader (Bio-TEK, Winooski, Vt.).

CaLu-1 lung cancer cells = experiment: MTT metabolism assay; format: cell-based; details: Homo sapiens, mean ± SD of 3 to 5 experiments, read-out: IC50 for cell viability measured by MTT assay
Procedure: as §1

[3] = tested on: RPMI-8226 multiple myeloma cells; experiment: MTT metabolism assay; format: cell-based; details: Homo sapiens, mean ± SD of 3 to 5 experiments, read-out: IC50 for cell viability measured by MTT assay
Procedure: as §1

[4] = tested on: DU-145 prostate cancer cells; experiment: MTT metabolism assay; format: cell-based; details: Homo sapiens, read-out: IC50 for cell viability measured by MTT assay
Procedure: as §1

[5] = tested on: HPDE6-C7 (C7) pancreatic epithelial cells; experiment: MTT metabolism assay; format: cell-based; details: Homo sapiens, HPDE6c7, mean ± SD of 3 to 5 experiments, read-out: IC50 for cell viability measured by MTT assay
Procedure: as §1

[6] = tested on: primary multiple myeloma cells isolated from patients' bone marrow; experiment: Proliferation of primary multiple myeloma cells (Trypan blue); format: cell-based, human; details: primary MM cells, 24 h treatment, Table 5: one value per patient, mean over patients
Procedure: (§2) MM patients' bone marrow samples were collected from Liquid Tissue Bank facility. Freshly isolated bone marrow samples were fractionated by Ficoll-Paque (Pharmacia Biotech, Piscataway, N.J.) sedimentation. The mononuclear cellular layer was then resuspended in RPMI-1640 containing 10% heat-inactivated fetal bovine serum, 10 mM HEPES (pH 7.4), sodium pyruvate, L-glutamine, and 1% penicillin-streptomycin.
Adherent cells were harvested using trypsinization and pooled with suspension cells from media supernatant by pelleting at 300 g for 5 min at 4° C. The cells were then resuspended in an appropriate volume of media by pipetting gently up and down. Two 20 μl aliquots were removed and combined with an equal volume of 0.4% Trypan blue and allowed to mix for 1 minute. A 10 μl volume was loaded onto a hemacytometer and cells were scored as live or dead based on Trypan blue dye exclusion and the percentage of dead cell number to total cell number was calculated. To calculate the percentage of proliferation, the number of live cells in the treated samples was divided by the number of live cells in the untreated vehicle control.

[7] = molecular target: T2, hepatic CT-L, T-L, and PGPH activities (Mus musculus, UniProt O09061+O55234+P70195+Q60692); experiment: Proteasome activities in livers of tumor-bearing mice after in vivo treatment; design: species or system nude mice; details: livers extracted 2 hours after last i.p. injection (1 mpk)
T2 construct: from tissue; host or cells: liver of tumour-bearing nude mice (Charles River)
Procedure: as §3, §4, §5

[8] = tested on: MCF-7 breast cancer cells; experiment: MTT metabolism assay; format: cell-based, human; details: Homo sapiens
Procedure: as §1
Cells were plated in 96-well plates in 100 μl medium and allowed to attach overnight. Cells were then incubated for 72 h with varying concentrations of PI-083, YG1-080, YG1-075, HL2-090-2, HL2-090-4, HL2-090-6, and HL2-090-9 or vehicle control (DMSO). Media was aspirated and replaced with 100 μl complete media containing 1 mg/ml MTT and incubated for three hours at 37° C. in 5% CO2 humidified incubator. Media was then aspirated and DMSO was added. Cells were incubated for 10 min at room temperature while shaking, and the absorbance was determined at 540 nm using a μQuant spectrophotometric plate reader (Bio-TEK, Winooski, Vt.).

[9] = molecular target: T3, tumor T-L activity (A549 tumors) (Homo sapiens, UniProt Q99436); experiment: Proteasome activity in A549 tumor lysates after in vivo treatment; design: species or system nude mice; details: mouse, ip; A549 tumors extracted 2 hours after last i.p. injection (1 mpk), vs DMSO-treated controls
T3 construct: from tissue; host or cells: A549 human lung tumour xenografts grown in nude mice
Procedure: as §3, §4, §5

[10] = molecular target: tumor PGPH activity (A549 tumors) (Homo sapiens, UniProt P28072); experiment: as above
Procedure: as §3, §4, §5

[11] = molecular target: T4, chymotrypsin-like (CT-L) activity of purified 20S rabbit proteasome (Oryctolagus cuniculus, UniProt G1T4Q9); experiment: Proteolytic activity of purified 20S proteasome, fluorogenic substrate Suc-Leu-Leu-Val-Tyr-AMC; format: biochemical
T4 sequence (G1T4Q9 1-263): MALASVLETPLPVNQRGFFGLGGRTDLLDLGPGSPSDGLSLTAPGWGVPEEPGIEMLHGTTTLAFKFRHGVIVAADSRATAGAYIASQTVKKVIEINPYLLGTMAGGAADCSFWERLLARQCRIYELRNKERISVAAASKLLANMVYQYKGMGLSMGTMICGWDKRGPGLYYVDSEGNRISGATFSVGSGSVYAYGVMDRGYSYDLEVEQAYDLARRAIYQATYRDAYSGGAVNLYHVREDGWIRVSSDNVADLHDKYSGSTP
Procedure: After incubation, production of hydrolyzed 7-amido-4-methyl-coumarin (AMC) groups was measured using a WALLAC Victor^2 1420 Multilabel Counter with an excitation filter of 355 nm and an emission filter of 460 nm (Perkin Elmer Life Sciences, Turku, Finland).
The inhibitory activity of the compounds was calculated based on vehicle control). This technique monitors the hydrolytic release of a coumarin species from a synthetic peptide substrate.
The assay was conducted by using a fluorogenic peptide as substrate to test synthesized compounds for inhibitory activity against the chymotrypsin-like activity of the purified rabbit 20S proteasome. Briefly, 70 ng of purified 20S proteasome was incubated with 20 μM Suc-Leu-Leu-Val-Tyr-AMC for 1 hour at 37° C. in 100 μl of assay buffer (50 mM Tris-HCl, pH 7.6) with or without inhibitors. After incubation, production of hydrolyzed 7-amido-4-methyl-coumarin (AMC) was measured using a WALLAC Victor2 1420 Multilabel Counter with an excitation filter of 355 nm and an emission filter of 460 nm (Perkin Elmer Life Sciences, Turku, Finland). The inhibitory activity of the compounds was calculated based on vehicle control.

[12] = tested on: primary multiple myeloma cells isolated from patients' bone marrow; experiment: Viability of primary multiple myeloma cells (MTT assay); format: cell-based, human
Procedure: as §2
Cells were plated in 96-well plates in 100 μl medium and allowed to attach overnight. […] […] Media was then aspirated and DMSO was added. Cells were incubated for 10 min at room temperature while shaking, and the absorbance was determined at 540 nm using a μQuant spectrophotometric plate reader (Bio-TEK, Winooski, Vt.).

[13] = read-out: Proliferation 24 h (IC50 values)
[14] = MCF7, 24 h, MCF-7, 24 h, mean ± SD of 3 to 5 experiments, read-out: IC50 for cell viability measured by MTT assay
[15] = MCF7, 72 h, MCF-7, 72 h, mean ± SD of 3 to 5 experiments (Table 3), read-out: IC50 for cell viability measured by MTT assay
[16] = read-out: Viability 24 h (IC50 values), primary MM cells, 24 h, Table 5: one value per patient, mean over patients

Compound | inhibition at 1 mg/kg [1] [%] | IC50 ([2]; 24 h) [nM] | IC50 ([2]; 72 h) [nM] | IC50 (CaLu-1 lung cancer cells; CaLu-1, 24 h) [nM] | IC50 (CaLu-1 lung cancer cells; CaLu-1, 72 h) [nM] | IC50 ([3]; RPMI-8226, 24 h) [nM] | IC50 ([3]; RPMI-8226, 72 h) [nM] | IC50 ([4]; DU-145, 24 h) [nM] | IC50 ([4]; DU-145, 72 h) [nM] | IC50 ([5]; C7, 24 h) [nM] | IC50 ([5]; C7, 72 h) [nM] | IC50 [6, 13] | effect on proteasome activities in livers of tumor-bearing mice [7] | IC50 [8, 14] [nM] | IC50 [8, 15] [nM] | inhibition at 1 mg/kg [9] [%] | IC50 [12, 16] | further results
O=C1C(Cl)=C(Nc2ccc(S(=O)(=O)Nc3ccccn3)cc2)C(=O)c2ccccc21 [PI-083, 4-(3-chloro-1,4-dioxo-1,4-dihydronaphthalen-2-ylamino)-N-(pyridin-2-yl)benzenesulfonamide] | 43 | 14000 ± 2800 | 5200 ± 1100 | 7300 ± 430 | 4900 ± 1200 | 7400 ± 380 | 10000 ± 4000 | 8600 ± 630 | 5000 ± 720 | 5100 ± 530 | 4200 ± 1600 | 6.6 µM and 1.3 µM and 2.2 µM and 2.6 µM and 1.7 µM and 2.8 µM and 10 µM and 5 µM and 2.9 µM | did not inhibit liver proteasome activities | 4500 ± 820 | 2200 ± 1100 | 12 | > 10000 nM and 2200 nM and 3400 nM and 1800 nM and 2000 nM | IC50 ([8]; MCF7, 72 h, MCF-7, 72 h (Table 6), read-out: IC50 for cell viability measured by MTT assay in MCF-7 human breast cancer cells): 2310 ± 100 nM; inhibition at 1 mg/kg ([10]; A549, mouse, ip, read-out: inhibition of tumor PGPH activity): 34%; IC50 ([11]; PI-083 derivatives (Table 7, naphthoquinone library), purified rabbit 20S proteasome, read-out: IC50 (μM) Chymotrypsin-like activity): 1.2 ± 1 µM; IC50 ([11]; purified 20S rabbit proteasome, Table 4: means of 3 experiments ± standard error, read-out: IC50 for CT-L activity in vitro): 1 µM; IC50 ([12]; primary MM cells, 48 h, Table 5: one value per patient, b176: mean over patients, read-out: Viability 48 h (IC50 values)): 1790 nM and 2600 nM and 3600 nM and 900 nM and 1500 nM; IC50 ([12]; read-out: Viability 72 h (IC50 values), primary MM cells, 72 h, Table 5: one value per patient, b176: mean over patients): 1600 nM and 2200 nM and 2600 nM and 1300 nM and 1800 nM and 350 nM
CC(C)C[C@H](NC(=O)[C@H](Cc1ccccc1)NC(=O)c1cnccn1)B(O)O [Bortezomib, reference compound] | 70 | > 30000 | 57 ± 4 | > 30000 | 22 ± 2 | 49 ± 25 | 26 ± 3 | > 30000 | 25 ± 2 | > 30000 | 32 ± 1 | > 10 µM | significantly inhibited hepatic CT-L, T-L, and PGPH activities | > 30000 | 8600 ± 1410 | 0 | 190 nM and 280 nM | IC50 ([6]; Homo sapiens, Multiple myeloma cell, read-out: Proliferation 24 h (IC50 values, μM)): > 10 µM; inhibition of tumor PGPH activity ([10]; A549 tumors extracted 2 hours after last i.p. injection (1 mpk), vs DMSO-treated controls): 68%; difference in potency between bortezomib and PI-083 ([11]; CT-L inhibition): 100 fold; IC50 ([12]; primary MM cells, 48 h, Table 5: one value per patient, b176: mean over patients, listed as bortezomib, read-out: Viability 48 h (IC50 values)): 140 ± 80 nM; IC50 ([12]; read-out: Viability 72 h (IC50 values), primary MM cells, 72 h, Table 5: one value per patient, b176: mean over patients, listed as bortezomib): 46 ± 8 nM
